From US5773569A (Affymax Technologies N.V., priority 1995, dated 1998) come the findings set out here.

Read-outs that look alike come from different tables or passages of the source. Residues, ends and D or L forms follow the SMILES beside them.

Experiment [1] has as its target T1, PIG-tailed EPO-R immobilized on mAb179 (Homo sapiens, UniProt P19235).
T1 construct: comprised the extracellular domain of the EPO-receptor; thrombin cleavage site (internal); made in house
T1 sequence (P19235 25-250 limits assumed): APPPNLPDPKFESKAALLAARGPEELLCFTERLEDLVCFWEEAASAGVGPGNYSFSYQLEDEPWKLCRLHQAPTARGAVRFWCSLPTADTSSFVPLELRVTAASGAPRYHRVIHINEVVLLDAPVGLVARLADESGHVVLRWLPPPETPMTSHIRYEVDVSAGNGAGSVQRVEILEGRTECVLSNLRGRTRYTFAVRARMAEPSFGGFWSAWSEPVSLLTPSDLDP
The experiment is described as follows: PIG-tailed EPO-R radioligand competition binding assay. To be noted: streptavidin 4:1 experiment; free peptide concentrations.

Experiment [2] has as its target T2, FDCP-1/hEPO-R cells (human EPO-R) (Homo sapiens, UniProt P19235).
T2 sequence (P19235 25-508): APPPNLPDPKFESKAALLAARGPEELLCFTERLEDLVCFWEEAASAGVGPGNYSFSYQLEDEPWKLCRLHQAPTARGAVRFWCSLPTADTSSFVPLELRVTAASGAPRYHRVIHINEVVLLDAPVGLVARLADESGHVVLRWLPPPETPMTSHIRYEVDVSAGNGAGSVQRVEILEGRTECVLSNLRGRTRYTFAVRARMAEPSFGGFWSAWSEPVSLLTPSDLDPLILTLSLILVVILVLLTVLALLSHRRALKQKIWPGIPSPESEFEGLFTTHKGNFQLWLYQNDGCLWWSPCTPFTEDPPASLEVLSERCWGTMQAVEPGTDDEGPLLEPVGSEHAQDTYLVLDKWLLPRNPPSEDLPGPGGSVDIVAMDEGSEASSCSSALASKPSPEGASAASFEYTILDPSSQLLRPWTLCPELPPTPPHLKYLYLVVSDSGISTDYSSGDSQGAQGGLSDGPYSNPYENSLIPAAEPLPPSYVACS
In words: cell-based. How it is done:
One assay utilized FDCP-1, a growth factor depenent murne multi-potential primitive hematopoietic progenitor cell line (see, e.g., Dexter et al. (1980) J. Exp. Med. 152:1036-1047), as the parental cell line. This cell line can proliferate, but not differentiate, when supplemented with WEHI3-conditioned media (a medium that contains IL-3, ATCC number T1B68).
In brief, the cells are grown to half stationary density in the presence of the necessary growth factors. The cells are then washed in PBS and starved for 16-24 hours in whole media without the growth factors. After determining the viability of the cells, stock solutions (in whole media without the growth factors) are made to give about 10^5 cells per 50 microliters. […] Cells (50 microliters) are added to each well and the cells are incubated 24-48 hours, at which point the negative controls should die or be quiescent. Cell proliferation is then measured by techniques known in the art, such as an MTT assay which correlates with ^3 H-thymidine incorporation as an indication of cell proliferation (see, Mosmann (1983) J. Immnunol. Methods 65:55).
In addition, this peptide was preincubated with streptavidin in serum-free HEPES-buffered RPMI at a 4:1 molar ratio, as above. The complex was tested for stimulation of cell proliferation in an FDCP-1/hEPO-R bioassay alongside. free […] […]

In experiment [3] the target is T3, murine receptor (FDC-P1/ER cells) (Mus musculus, UniProt P14753).
T3 sequence (P14753 25-507): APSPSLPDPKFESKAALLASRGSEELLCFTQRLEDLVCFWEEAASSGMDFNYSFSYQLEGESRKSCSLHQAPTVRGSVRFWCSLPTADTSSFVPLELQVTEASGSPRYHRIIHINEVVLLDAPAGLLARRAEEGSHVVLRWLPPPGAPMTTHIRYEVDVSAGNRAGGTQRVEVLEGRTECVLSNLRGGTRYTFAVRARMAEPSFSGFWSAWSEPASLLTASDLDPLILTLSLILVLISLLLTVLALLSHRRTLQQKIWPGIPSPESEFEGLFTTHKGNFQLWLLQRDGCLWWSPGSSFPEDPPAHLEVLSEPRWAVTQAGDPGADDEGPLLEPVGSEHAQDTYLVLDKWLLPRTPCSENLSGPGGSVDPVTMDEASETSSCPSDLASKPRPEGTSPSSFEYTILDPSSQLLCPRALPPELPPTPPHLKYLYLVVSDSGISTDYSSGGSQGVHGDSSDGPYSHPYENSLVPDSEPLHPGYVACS
In words: cell-based. To be noted: IA = inactive.
Method: Sample Preparation: Peptides were resuspended in DMSO as a 1×10^-2 M stock solution and serially diluted in 10-fold increments to generate the following 100×solutions:
Two μl of each stock dilution was added to a cell well as described below in a total volume of 200 μl to generate final concentrations as follows:
(§1) Cells are harvested and resuspended in fresh medium without growth factor (erytiropoietin) for 24 hr. Cells are counted and resuspended at a concentration of 800,000 cells/ml. Approximately forty thousand cells (50μ) are added to each well of a 96 well microtiter plate. Peptide is added to each well in triplicate. A standard dose response determination is run with each series of peptides. After a forty-two hr incubation (≈2 doubling), each well is pulsed with 1 μCi/well Thymidine. Cells are incubated an additional six hr at which time cells are harvested and counted to assess thymidine incorporation as an indicator of cell proliferation.

The target in experiment [4] is T4, truncated human erythropoietin receptor cell line (Homo sapiens, UniProt P19235).
T4 sequence (P19235 25-468 limits assumed): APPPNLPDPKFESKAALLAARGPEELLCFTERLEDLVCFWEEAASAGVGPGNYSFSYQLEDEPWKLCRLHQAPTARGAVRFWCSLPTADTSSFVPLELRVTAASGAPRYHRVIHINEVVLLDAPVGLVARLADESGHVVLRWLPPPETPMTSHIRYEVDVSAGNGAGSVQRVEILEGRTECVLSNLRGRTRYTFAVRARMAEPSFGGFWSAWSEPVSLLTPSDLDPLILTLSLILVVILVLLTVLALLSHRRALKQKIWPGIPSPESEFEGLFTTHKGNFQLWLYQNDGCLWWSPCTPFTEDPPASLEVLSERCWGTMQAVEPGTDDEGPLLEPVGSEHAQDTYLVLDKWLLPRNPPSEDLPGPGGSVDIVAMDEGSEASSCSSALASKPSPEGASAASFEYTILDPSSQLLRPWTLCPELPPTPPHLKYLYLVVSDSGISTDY
In words: cell-based.
Method: as §1

The target in experiment [5] is T5, extracellular domain of the human erythropoietin receptor (EPO binding protein, EBP) (Homo sapiens, UniProt P19235).
T5 construct: made in house
T5 sequence (P19235 25-250 limits assumed): T1 sequence (P19235 25-250 limits assumed)
In words: Immobilized EBP based [125I]EPO competition binding assay. To be noted: IC50 relative to RWJ61233 (IC50 5 μM); cyclic peptides, COOH terminal amides. As for the experimental part: The iodoacetyl activation chemistry of Sufolink beads (Pierce Chemical Co, Rockford, Ill.) is specific for free thiols and assures that the linkage is not easily reversible. EBP-Sulfolink beads were made as follows: SulfoLink gel suspension (10 ml) was mixed with coupling buffer (40 ml: 50 mM Tris, pH 8.3, 5 mM EDTA) and the gel was allowed to settle. The supernatant was removed and the EBP (0.3-1 mg/ml in coupling buffer) to be bound was added directly to the washed beads. The mixture was rocked gently for 30 minutes at room temperature, and the beads were allowed to settle for 1 hour at room temperature. […] The amount of EBP which was covalently bound to the beads was determined by comparing the OD280 of the original EBP solution to the total OD280 recovered in the reaction supernatant and the two 20 ml washes.
Binding assays were initiated by the addition of EBP beads (50 μl) to individual reaction tubes. […] The tubes were incubated for five hours (a time period experimentally determined as adequate for the establishment of equilibrium) at room temperature with gentle rocking. […]
Competitive binding analysis assays of candidate peptides were performed as outlined below. […] The columns containing the washed beads were placed in 12×75 mm glass tubes and bound radioactivity levels were determined using a gamma counter.

[6] abbreviates: EPO-ED50 (μM)* murine receptor, Tables 20-21.

`CC(C)C[C@@H]1NC(=O)[C@@H]2CCCN2C(=O)CNC(=O)[C@H](Cc2ccccc2)NC(=O)[C@H](Cc2c[nH]cn2)NC(=O)[C@@H](NC(=O)[C@H](CO)NC(=O)[C@H](Cc2ccc(O)cc2)NC(=O)[C@@H](NC(=O)CNC(=O)CN)[C@@H](C)O)CSSC[C@@H](C(=O)N[C@@H](CCCCN)C(=O)N2CCC[C@H]2C(=O)N[C@@H](CCC(N)=O)C(=O)NCC(=O)NCC(=O)N[C@@H](CO)C(=O)N[C@@H](CO)C(=O)N[C@@H](CCCCNC(=O)CCCCCNC(=O)CCCC[C@@H]2SC[C@@H]3NC(=O)N[C@@H]32)C(N)=O)NC(=O)[C@H](C(C)C)NC(=O)[C@H](Cc2c[nH]c3ccccc23)NC(=O)[C@H]([C@@H](C)O)NC1=O` (HELM PEPTIDE1{G.G.T.Y.S.C.H.F.G.P.L.T.W.V.C.K.P.Q.G.G.S.S.K.[am]}|PEPTIDE2{[O=C1N[C@H]2[C@H](CS[C@H]2CCCCC(=O)[*:2])N1].[O=C(CCCCCN[*:1])[*:2]]}$PEPTIDE1,PEPTIDE2,23:R3-2:R2|PEPTIDE1,PEPTIDE1,6:R3-15:R3$$$V2.0; N-terminus and C-terminus assumed): in experiment [1], the IC50 (usually the concentration needed to halve the response being measured) stood at 350 nM.

For `CC(C)C[C@@H]1NC(=O)[C@@H]2CCCN2C(=O)CNC(=O)[C@H](Cc2ccccc2)NC(=O)[C@H](Cc2c[nH]cn2)NC(=O)[C@@H](NC(=O)[C@H](CO)NC(=O)[C@H](Cc2ccc(O)cc2)NC(=O)[C@@H](NC(=O)CNC(=O)CN)[C@@H](C)O)CSSC[C@@H](C(=O)N[C@@H](CCCCN)C(=O)N2CCC[C@H]2C(=O)N[C@@H](CCC(N)=O)C(=O)NCC(=O)NCC(N)=O)NC(=O)[C@H](C(C)C)NC(=O)[C@H](Cc2c[nH]c3ccccc23)NC(=O)[C@H]([C@@H](C)O)NC1=O` [RWJ 61233] (HELM PEPTIDE1{G.G.T.Y.S.C.H.F.G.P.L.T.W.V.C.K.P.Q.G.G.[am]}$PEPTIDE1,PEPTIDE1,6:R3-15:R3$$$V2.0), the EC50 (in general, the midpoint of the concentration-response curve) in experiment [2] was 400 nM; in experiment [2] (EPO-ED50, FIG. 10), about 1000 nM; in experiment [3] (EPO-ED50 (μM), Tables 17-19, amount for half maximal level of EPO dependent proliferation) it was 0.1 µM; in experiment [4], 100 nM.

As to `CC(=O)NCC(=O)NCC(=O)N[C@H](C(=O)N[C@@H](Cc1ccc(O)cc1)C(=O)N[C@@H](CO)C(=O)N[C@H]1CSSC[C@@H](C(=O)N[C@@H](CCCCN)C(=O)N2CCC[C@H]2C(=O)N[C@@H](CCC(N)=O)C(=O)NCC(=O)NCC(N)=O)NC(=O)[C@H](C(C)C)NC(=O)[C@H](Cc2c[nH]c3ccccc23)NC(=O)[C@H]([C@@H](C)O)NC(=O)[C@H](CC(C)C)NC(=O)[C@@H]2CCCN2C(=O)CNC(=O)[C@H](Cc2ccccc2)NC(=O)[C@H](Cc2c[nH]cn2)NC1=O)[C@@H](C)O` [RWJ 62146] (HELM PEPTIDE1{[ac].G.G.T.Y.S.C.H.F.G.P.L.T.W.V.C.K.P.Q.G.G.[am]}$PEPTIDE1,PEPTIDE1,7:R3-16:R3$$$V2.0), the “Relative Binding” value in experiment [5] was determined as 4. The EC50 in experiment [3] (setting [6]) is 0.03 µM; in experiment [4] it was 60 nM.

In the case of `CC(C)C[C@@H]1NC(=O)[C@@H]2CCCN2C(=O)CNC(=O)[C@H](Cc2ccccc2)NC(=O)[C@H](Cc2c[nH]cn2)NC(=O)[C@@H](NC(=O)[C@H](CO)NC(=O)[C@H](Cc2ccc(F)cc2)NC(=O)[C@@H](NC(=O)CNC(=O)CN)[C@@H](C)O)CSSC[C@@H](C(=O)N[C@@H](CCCCN)C(=O)N2CCC[C@H]2C(=O)N[C@@H](CCC(N)=O)C(=O)NCC(=O)NCC(N)=O)NC(=O)[C@H](C(C)C)NC(=O)[C@H](Cc2c[nH]c3ccccc23)NC(=O)[C@H]([C@@H](C)O)NC1=O` [RWJ 62020, GGTXSCHFGPLTWVCKPQGG] (HELM PEPTIDE1{G.G.T.[O=C([C@H](Cc1ccc(F)cc1)N[*:1])[*:2]].S.C.H.F.G.P.L.T.W.V.C.K.P.Q.G.G.[am]}$PEPTIDE1,PEPTIDE1,6:R3-15:R3$$$V2.0), the EC50 turned out to be 1 µM in experiment [3] (setting [6]) and 100 nM in experiment [4].

For RWJ 61721 (GGTYSEHFGPLTWVKKPQGG), the “Relative Binding” value in experiment [5] was over 100.
